From doi:10.1101/041947v2 (biorxiv, 2016) come the findings set out here.

This assay concerns A549. Description: cells. Particulars: Homo sapiens, A549, read-out: IC50 nM.

For orientation: IC50 means the concentration at which inhibition is half-maximal. On to `CC[C@]1(O)C[C@@H]2CN(CCc3c([nH]c4ccccc34)[C@@](C(=O)OC)(c3cc4c(cc3OC)N(C)[C@H]3[C@@](O)(C(=O)OC)[C@H](OC(C)=O)[C@]5(CC)C=CCN6CC[C@]43[C@@H]65)C2)C1` [Vinblastine], for which the concentration for half-maximal inhibition (IC50) came out at 4.2 nM.
